{
  "source": "patent US20240239801A1",
  "about": "“PYRIMIDO[5,4,D]PYRIMIDINE COMPOUNDS, COMPOSITIONS COMPRISING THEM AND USES THEREOF” (Université de Montréal, priority 2021, published 2024)",
  "assay_in_all_cases": "Phospho-ERK inhibition, AlphaLISA SureFire Ultra p-ERK 1/2",
  "type_in_all_cases": "cell-based, human",
  "key": {"NCIH2087 pERK": {"test_system": "NCIH2087 pERK", "details": "Table D-2", "procedure,_shortened": "(§1)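 Cells plated in RPMI-1640 with 5% FBS, held overnight, then exposed 1 h to ten-point compound dilutions (top 30 or 10 μM down to 0.33 nM; 0.5% DMSO). Lysates read for p-ERK1/2 (Thr202/Tyr204) by AlphaLISA; % inhibition relative to DMSO after subtracting a 1 μM trametinib background; IC50 from four-parameter fit.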"}, "IPC298 pERK": {"test_system": "IPC298 pERK", "details": "Table D-1; for IPC298 pERK, value in parentheses, % inhibition: % Ymin of pERK IC50 curve", "procedure,_shortened": "as §1"}, "Calu6 pERK": {"test_system": "Calu6 pERK", "details": "Table D-2; for Calu6 pERK, value in parentheses, % inhibition: % Ymin of pERK IC50 curve", "procedure,_shortened": "as §1"}, "Mewo pERK": {"test_system": "Mewo pERK", "details": "Table D-2; for Mewo pERK, value in parentheses, % inhibition: % Ymin of pERK IC50 curve", "procedure,_shortened": "as §1"}, "HepG2 pERK": {"test_system": "HepG2 pERK", "details": "Table D-1; for HepG2 pERK, value in parentheses, % inhibition: % Ymin of pERK IC50 curve", "procedure,_shortened": "as §1"}, "NCI-H2122 pERK": {"test_system": "NCI-H2122 pERK", "details": "Table D-2; for NCI-H2122 pERK, value in parentheses, % inhibition: % Ymin of pERK IC50 curve", "procedure,_shortened": "as §1"}, "NCIH1755 pERK": {"test_system": "NCIH1755 pERK", "details": "Table D-2; for Ymin of pERK inhibition curve (%): % Ymin of pERK IC50 curve", "procedure,_shortened": "as §1"}},
  "data": [
    {"smiles": "Cc1ccc2c(Nc3cccc(Cl)c3F)nccc2c1NC(=O)c1csc2c(N)ncnc12", "note": "[Belvarafenib, reference compound]", "values": [
      {"measurement": "IC50", "setting": "NCIH2087 pERK; Homo sapiens, NCI-H2087", "result": "< 30", "unit": "nM"},
      {"measurement": "IC50", "setting": "IPC298 pERK; Homo sapiens, IPC-298", "result": "30 to 300", "unit": "nM"},
      {"measurement": "IPC298 pERK, value in parentheses, % inhibition", "setting": "IPC298 pERK", "result": "(−63) %"},
      {"measurement": "IC50", "setting": "Calu6 pERK; Homo sapiens, Calu-6", "result": "30 to 300", "unit": "nM"},
      {"measurement": "Calu6 pERK, value in parentheses, % inhibition", "setting": "Calu6 pERK", "result": "(−39) %"},
      {"measurement": "IC50", "setting": "Mewo pERK; Homo sapiens, MeWo", "result": "30 to 300", "unit": "nM"},
      {"measurement": "Mewo pERK, value in parentheses, % inhibition", "setting": "Mewo pERK", "result": "(−116) %"},
      {"measurement": "IC50", "setting": "HepG2 pERK; Homo sapiens, HepG2", "result": "30 to 300", "unit": "nM"},
      {"measurement": "HepG2 pERK, value in parentheses, % inhibition", "setting": "HepG2 pERK", "result": "(−36) %"},
      {"measurement": "IC50", "setting": "NCI-H2122 pERK; Homo sapiens, NCI-H2122", "result": "30 to 300", "unit": "nM"},
      {"measurement": "NCI-H2122 pERK, value in parentheses, % inhibition", "setting": "NCI-H2122 pERK", "result": "(−9) %"},
      {"measurement": "IC50", "setting": "NCIH1755 pERK; Homo sapiens, NCI-H1755", "result": "30 to 300", "unit": "nM"},
      {"measurement": "Ymin of pERK inhibition curve (%)", "setting": "NCIH1755 pERK", "result": "(−79) %"}
    ]},
    {"smiles": "Cc1c(F)cccc1S(=O)(=O)Nc1ccc(F)c(Nc2ncnc3cnc(-n4cc(C(=O)N(C)Cc5ccncc5)c5ccccc54)nc23)c1F", "note": "[Example 98]", "values": [
      {"measurement": "IC50", "setting": "NCIH2087 pERK", "result": "< 30", "unit": "nM"},
      {"measurement": "Ymin of pERK IC50 curve (%)", "setting": "NCIH2087 pERK", "result": "(6) %"},
      {"measurement": "IC50", "setting": "IPC298 pERK", "result": "30 to 300", "unit": "nM"},
      {"measurement": "IPC298 pERK, value in parentheses, % inhibition", "setting": "IPC298 pERK", "result": "(13) %"},
      {"measurement": "IC50", "setting": "Calu6 pERK", "result": "30 to 300", "unit": "nM"},
      {"measurement": "Calu6 pERK, value in parentheses, % inhibition", "setting": "Calu6 pERK", "result": "(5) %"},
      {"measurement": "IC50", "setting": "Mewo pERK", "result": "30 to 300", "unit": "nM"},
      {"measurement": "Mewo pERK, value in parentheses, % inhibition", "setting": "Mewo pERK", "result": "(9) %"},
      {"measurement": "IC50", "setting": "HepG2 pERK", "result": "< 30", "unit": "nM"},
      {"measurement": "HepG2 pERK, value in parentheses, % inhibition", "setting": "HepG2 pERK", "result": "(27) %"},
      {"measurement": "IC50", "setting": "NCI-H2122 pERK", "result": "30 to 300", "unit": "nM"},
      {"measurement": "NCI-H2122 pERK, value in parentheses, % inhibition", "setting": "NCI-H2122 pERK", "result": "(26) %"},
      {"measurement": "IC50", "setting": "NCIH1755 pERK", "result": "< 30", "unit": "nM"},
      {"measurement": "Ymin of pERK inhibition curve (%)", "setting": "NCIH1755 pERK", "result": "(9) %"}
    ]},
    {"smiles": "COc1ccc(S(=O)(=O)Nc2ccc(F)c(Nc3ncnc4cnc(-n5cnc6c(N)cccc65)nc34)c2F)c(C)c1Cl", "note": "[Example 112]", "values": [
      {"measurement": "IC50", "setting": "NCIH2087 pERK", "result": "< 30", "unit": "nM"},
      {"measurement": "Ymin of pERK IC50 curve (%)", "setting": "NCIH2087 pERK", "result": "(−7) %"},
      {"measurement": "IC50", "setting": "IPC298 pERK", "result": "30 to 300", "unit": "nM"},
      {"measurement": "IPC298 pERK, value in parentheses, % inhibition", "setting": "IPC298 pERK", "result": "(1) %"},
      {"measurement": "IC50", "setting": "Calu6 pERK", "result": "30 to 300", "unit": "nM"},
      {"measurement": "Calu6 pERK, value in parentheses, % inhibition", "setting": "Calu6 pERK", "result": "(1) %"},
      {"measurement": "IC50", "setting": "Mewo pERK", "result": "< 30", "unit": "nM"},
      {"measurement": "Mewo pERK, value in parentheses, % inhibition", "setting": "Mewo pERK", "result": "(12) %"},
      {"measurement": "IC50", "setting": "HepG2 pERK", "result": "30 to 300", "unit": "nM"},
      {"measurement": "HepG2 pERK, value in parentheses, % inhibition", "setting": "HepG2 pERK", "result": "(−10) %"},
      {"measurement": "IC50", "setting": "NCI-H2122 pERK", "result": "30 to 300", "unit": "nM"},
      {"measurement": "NCI-H2122 pERK, value in parentheses, % inhibition", "setting": "NCI-H2122 pERK", "result": "(−15) %"},
      {"measurement": "IC50", "setting": "NCIH1755 pERK", "result": "< 30", "unit": "nM"},
      {"measurement": "Ymin of pERK inhibition curve (%)", "setting": "NCIH1755 pERK", "result": "(12) %"}
    ]},
    {"smiles": "Cc1c(F)cccc1S(=O)(=O)Nc1ccc(F)c(Nc2ncnc3cnc(-n4cnc5c(-c6cccnc6)cccc54)nc23)c1F", "note": "[Example 114]", "values": [
      {"measurement": "IC50", "setting": "NCIH2087 pERK; Homo sapiens, NCI-H2087", "result": "30 to 300", "unit": "nM"},
      {"measurement": "Ymin of pERK IC50 curve (%)", "setting": "NCIH2087 pERK", "result": "(2) %"},
      {"measurement": "IC50", "setting": "IPC298 pERK; Homo sapiens, IPC-298", "result": "30 to 300", "unit": "nM"},
      {"measurement": "IPC298 pERK, value in parentheses, % inhibition", "setting": "IPC298 pERK", "result": "(1) %"},
      {"measurement": "IC50", "setting": "Calu6 pERK; Homo sapiens, Calu-6", "result": "30 to 300", "unit": "nM"},
      {"measurement": "Calu6 pERK, value in parentheses, % inhibition", "setting": "Calu6 pERK", "result": "(8) %"},
      {"measurement": "IC50", "setting": "Mewo pERK; Homo sapiens, MeWo", "result": "30 to 300", "unit": "nM"},
      {"measurement": "Mewo pERK, value in parentheses, % inhibition", "setting": "Mewo pERK", "result": "(−12) %"},
      {"measurement": "IC50", "setting": "HepG2 pERK; Homo sapiens, HepG2", "result": "30 to 300", "unit": "nM"},
      {"measurement": "HepG2 pERK, value in parentheses, % inhibition", "setting": "HepG2 pERK", "result": "(14) %"},
      {"measurement": "IC50", "setting": "NCI-H2122 pERK; Homo sapiens, NCI-H2122", "result": "30 to 300", "unit": "nM"},
      {"measurement": "NCI-H2122 pERK, value in parentheses, % inhibition", "setting": "NCI-H2122 pERK", "result": "(0) %"},
      {"measurement": "IC50", "setting": "NCIH1755 pERK; Homo sapiens, NCI-H1755", "result": "30 to 300", "unit": "nM"},
      {"measurement": "Ymin of pERK inhibition curve (%)", "setting": "NCIH1755 pERK", "result": "(−5) %"}
    ]},
    {"smiles": "O=S(=O)(Nc1ccc(F)c(Nc2ncnc3cnc(-n4cnc5c(N6CCC7(CCCO7)CC6)cccc54)nc23)c1F)c1cccc(Cl)c1Cl", "note": "[Example 129]", "values": [
      {"measurement": "IC50", "setting": "NCIH2087 pERK", "result": "< 30", "unit": "nM"},
      {"measurement": "Ymin of pERK IC50 curve (%)", "setting": "NCIH2087 pERK", "result": "(3) %"},
      {"measurement": "IC50", "setting": "IPC298 pERK", "result": "30 to 300", "unit": "nM"},
      {"measurement": "IPC298 pERK, value in parentheses, % inhibition", "setting": "IPC298 pERK", "result": "(17) %"},
      {"measurement": "IC50", "setting": "Calu6 pERK", "result": "30 to 300", "unit": "nM"},
      {"measurement": "Calu6 pERK, value in parentheses, % inhibition", "setting": "Calu6 pERK", "result": "(−1) %"},
      {"measurement": "IC50", "setting": "Mewo pERK", "result": "30 to 300", "unit": "nM"},
      {"measurement": "Mewo pERK, value in parentheses, % inhibition", "setting": "Mewo pERK", "result": "(−5) %"},
      {"measurement": "IC50", "setting": "HepG2 pERK", "result": "30 to 300", "unit": "nM"},
      {"measurement": "HepG2 pERK, value in parentheses, % inhibition", "setting": "HepG2 pERK", "result": "(−2) %"},
      {"measurement": "IC50", "setting": "NCI-H2122 pERK", "result": "> 300", "unit": "nM"},
      {"measurement": "NCI-H2122 pERK, value in parentheses, % inhibition", "setting": "NCI-H2122 pERK", "result": "(−14) %"},
      {"measurement": "IC50", "setting": "NCIH1755 pERK", "result": "< 30", "unit": "nM"},
      {"measurement": "Ymin of pERK inhibition curve (%)", "setting": "NCIH1755 pERK", "result": "(−2) %"}
    ]}
  ]
}
